Source: ChEMBL document CHEMBL3112450, “Synthesis and in vitro antitumor evaluation of primary amine substituted quinazoline linked benzimidazole” (Bioorg Med Chem Lett, 2014)

Legend:
Assay type in all cases: functional
[1] = system: COLO 205; assay: Cytotoxicity against human COLO205 cells assessed as cell growth at 10^-5 M after 48 hrs by SRB assay; settings: COLO 205, 48 h, read-out: Activity
[2] = system: OVCAR-3; assay: Cytotoxicity against human OVCAR3 cells assessed as cell growth at 10^-5 M after 48 hrs by SRB assay; settings: OVCAR-3, 48 h, read-out: Activity
[3] = system: SF-268; assay: Cytotoxicity against human SF268 cells assessed as cell growth at 10^-5 M after 48 hrs by SRB assay; settings: SF-268, 48 h, read-out: Activity
[4] = system: SK-MEL-2; assay: Cytotoxicity against human SK-MEL-2 cells assessed as cell growth at 10^-5 M after 48 hrs by SRB assay; settings: SK-MEL-2, 48 h, read-out: Activity
[5] = system: T47D; assay: Cytotoxicity against human T47D cells assessed as cell growth at 10^-5 M after 48 hrs by SRB assay; settings: read-out: Activity
[6] = system: Malme-3M; assay: Cytotoxicity against human MALME-3M cells assessed as cell growth at 10^-5 M after 48 hrs by SRB assay; settings: read-out: Activity
[7] = system: K562; assay: Cytotoxicity against human K562 cells assessed as cell growth at 10^-5 M after 48 hrs by SRB assay; settings: K562, 48 h, read-out: Activity
[8] = Cytotoxicity against human UO31 cells assessed as cell growth at 10^-5 M after 48 hrs by SRB assay; settings: UO-31, 48 h, read-out: Activity
[9] = system: PC-3; assay: Cytotoxicity against human PC3 cells assessed as cell growth at 10^-5 M after 48 hrs by SRB assay; settings: PC-3, 48 h, read-out: Activity
[10] = system: SK-OV-3; assay: Cytotoxicity against human SKOV3 cells assessed as cell growth at 10^-5 M after 48 hrs by SRB assay; settings: SK-OV-3, 48 h, read-out: Activity
[11] = system: HL-60(TB); assay: Cytotoxicity against human HL-60(TB) cells assessed as cell growth at 10^-5 M after 48 hrs by SRB assay; settings: HL-60, 48 h, read-out: Activity
[12] = Cytotoxicity against human UACC257 cells assessed as cell growth at 10^-5 M after 48 hrs by SRB assay; settings: UACC-257, 48 h, read-out: Activity
[13] = system: HCT-15; assay: Cytotoxicity against human HCT15 cells assessed as cell growth at 10^-5 M after 48 hrs by SRB assay; settings: HCT-15, 48 h, read-out: Activity
[14] = system: HCC 2998; assay: Cytotoxicity against human HCC2998 cells assessed as cell growth at 10^-5 M after 48 hrs by SRB assay; settings: HCC 2998, 48 h, read-out: Activity
[15] = system: CAKI-1; assay: Cytotoxicity against human Caki1 cells assessed as cell growth at 10^-5 M after 48 hrs by SRB assay; settings: CAKI-1, 48 h, read-out: Activity
[16] = system: SF-539; assay: Cytotoxicity against human SF539 cells assessed as cell growth at 10^-5 M after 48 hrs by SRB assay; settings: SF-539, 48 h, read-out: Activity
[17] = Cytotoxicity against human OVCAR5 cells assessed as cell growth at 10^-5 M after 48 hrs by SRB assay; settings: OVCAR-5, 48 h, read-out: Activity
[18] = system: LOX IMVI; assay: Cytotoxicity against human LOXIMVI cells assessed as cell growth at 10^-5 M after 48 hrs by SRB assay; settings: read-out: Activity
[19] = system: SK-MEL-28; assay: Cytotoxicity against human SK-MEL-28 cells assessed as cell growth at 10^-5 M after 48 hrs by SRB assay; settings: SK-MEL-28, 48 h, read-out: Activity
[20] = system: UACC-62; assay: Cytotoxicity against human UACC62 cells assessed as cell growth at 10^-5 M after 48 hrs by SRB assay; settings: UACC-62, 48 h, read-out: Activity
[21] = system: SK-MEL-5; assay: Cytotoxicity against human SK-MEL-5 cells assessed as cell growth at 10^-5 M after 48 hrs by SRB assay; settings: SK-MEL-5, 48 h, read-out: Activity
[22] = system: 786-0; assay: Cytotoxicity against human 786-0 cells assessed as cell growth at 10^-5 M after 48 hrs by SRB assay; settings: 786-0, 48 h, read-out: Activity
[23] = system: HOP-92; assay: Cytotoxicity against human HOP92 cells assessed as growth inhibition at 10 uM after 48 hrs by SRB assay; settings: HOP-92, 48 h, read-out: GI

Row | Compound | growth at 10 µM [1] [%] | growth at 10 µM [2] [%] | growth at 10 µM [3] [%] | growth at 10 µM [4] [%] | growth at 10 µM [5] [%] | growth at 10 µM [6] [%] | growth at 10 µM [7] [%] | growth at 10 µM [8] [%] | growth at 10 µM [9] [%] | growth at 10 µM [10] [%] | growth at 10 µM [11] [%] | growth at 10 µM [12] [%] | growth at 10 µM [13] [%] | growth at 10 µM [14] [%] | growth at 10 µM [15] [%] | growth at 10 µM [16] [%] | growth at 10 µM [17] [%] | growth at 10 µM [18] [%] | growth at 10 µM [19] [%] | growth at 10 µM [20] [%] | other results
1 | C=CCn1c(C)nc2cc(Nc3nc(Nc4ccc5nc(C)n(CC=C)c5c4)nc4ccccc34)ccc21 | 108 | 108 | 113 | 121 | 96 | 94.5 | 102 | 89.3 | 95.8 | 104 | 84 | 102 | 107 | 104 | 101 | 98.6 | 107 | 93.3 | 106 | 95.8 | growth at 10 µM [21]: 99.7%; growth at 10 µM [22]: 113%
2 | C=CCn1c(C)nc2ccc(Nc3nc(Sc4ccc(N)cc4)nc4ccccc34)cc21 | 121 | 106 | 109 | 109 | 71.7 | 123 | 92.5 | 89.5 | 81.1 | 124 | 98.8 | 110 | 96.5 | 103 | 90.5 | 108 | 118 | 97 | 104 | 83.1 | inhibition of growth at 10 µM [23]: 30%; growth at 10 µM [21]: 84.1%; growth at 10 µM [22]: 102%
